Reference: the NIST ThermoML archive (doi:10.1016/j.jct.2006.05.008)

Assay: molar heat capacity at constant pressure
Settings: 101.33 kPa

CCC[n+]1ccn(C)c1.[Br-] [1-methyl-3-propylimidazolium bromide]
Settings | molar heat capacity at constant pressure [J/K/mol]
79.74 K, Crystal, Vacuum adiabatic calorimetry | 92.59
79.94 K, Crystal, Vacuum adiabatic calorimetry | 92.76
81.02 K, Metastable crystal, Small (less than 1 g) adiabatic calorimetry | 99.02
81.27 K, Crystal, Vacuum adiabatic calorimetry | 93.84
81.34 K, Glass, Small (less than 1 g) adiabatic calorimetry | 99.34
82.19 K, Crystal, Vacuum adiabatic calorimetry | 94.55
82.6 K, Crystal, Vacuum adiabatic calorimetry | 94.86
83.24 K, Metastable crystal, Small (less than 1 g) adiabatic calorimetry | 100.47
83.87 K, Glass, Small (less than 1 g) adiabatic calorimetry | 101.14
83.93 K, Crystal, Vacuum adiabatic calorimetry | 95.59
84.2 K, Crystal, Vacuum adiabatic calorimetry | 95.76
85.27 K, Crystal, Vacuum adiabatic calorimetry | 96.54
85.49 K, Metastable crystal, Small (less than 1 g) adiabatic calorimetry | 101.89
86.22 K, Crystal, Vacuum adiabatic calorimetry | 97.26
86.42 K, Glass, Small (less than 1 g) adiabatic calorimetry | 103.04
86.6 K, Crystal, Vacuum adiabatic calorimetry | 97.57
87.75 K, Metastable crystal, Small (less than 1 g) adiabatic calorimetry | 103.44
87.94 K, Crystal, Vacuum adiabatic calorimetry | 98.49
88.23 K, Crystal, Vacuum adiabatic calorimetry | 98.81
89 K, Glass, Small (less than 1 g) adiabatic calorimetry | 105.01
89.27 K, Crystal, Vacuum adiabatic calorimetry | 99.53
90.04 K, Metastable crystal, Small (less than 1 g) adiabatic calorimetry | 104.98
90.61 K, Crystal, Vacuum adiabatic calorimetry | 100.47
91.6 K, Glass, Small (less than 1 g) adiabatic calorimetry | 106.89
91.95 K, Crystal, Vacuum adiabatic calorimetry | 101.38
92.27 K, Crystal, Vacuum adiabatic calorimetry | 101.66
92.34 K, Metastable crystal, Small (less than 1 g) adiabatic calorimetry | 106.48
93.29 K, Crystal, Vacuum adiabatic calorimetry | 102.41
94.22 K, Glass, Small (less than 1 g) adiabatic calorimetry | 108.72
94.29 K, Crystal, Vacuum adiabatic calorimetry | 103.09
94.64 K, Crystal, Vacuum adiabatic calorimetry | 103.36
94.66 K, Metastable crystal, Small (less than 1 g) adiabatic calorimetry | 107.94
95.98 K, Crystal, Vacuum adiabatic calorimetry | 104.28
96.31 K, Crystal, Vacuum adiabatic calorimetry | 104.51
96.86 K, Glass, Small (less than 1 g) adiabatic calorimetry | 110.58
97 K, Metastable crystal, Small (less than 1 g) adiabatic calorimetry | 109.41
97.33 K, Crystal, Vacuum adiabatic calorimetry | 105.24
98.33 K, Crystal, Vacuum adiabatic calorimetry | 105.88
98.67 K, Crystal, Vacuum adiabatic calorimetry | 106.05
99.35 K, Metastable crystal, Small (less than 1 g) adiabatic calorimetry | 110.84
99.51 K, Glass, Small (less than 1 g) adiabatic calorimetry | 112.37
100.03 K, Crystal, Vacuum adiabatic calorimetry | 106.92
100.36 K, Crystal, Vacuum adiabatic calorimetry | 107.18
101.38 K, Crystal, Vacuum adiabatic calorimetry | 107.81
101.71 K, Metastable crystal, Small (less than 1 g) adiabatic calorimetry | 112.27
102.18 K, Glass, Small (less than 1 g) adiabatic calorimetry | 114.14
102.39 K, Crystal, Vacuum adiabatic calorimetry | 108.44
102.74 K, Crystal, Vacuum adiabatic calorimetry | 108.69
104.09 K, Crystal, Vacuum adiabatic calorimetry | 109.46
104.09 K, Metastable crystal, Small (less than 1 g) adiabatic calorimetry | 113.67
104.42 K, Crystal, Vacuum adiabatic calorimetry | 109.77
104.87 K, Glass, Small (less than 1 g) adiabatic calorimetry | 115.91
105.45 K, Crystal, Vacuum adiabatic calorimetry | 110.36
106.45 K, Crystal, Vacuum adiabatic calorimetry | 111.06
106.47 K, Metastable crystal, Small (less than 1 g) adiabatic calorimetry | 115.09
106.81 K, Crystal, Vacuum adiabatic calorimetry | 111.31
107.56 K, Glass, Small (less than 1 g) adiabatic calorimetry | 117.68
108.17 K, Crystal, Vacuum adiabatic calorimetry | 112.14
108.48 K, Crystal, Vacuum adiabatic calorimetry | 112.42
108.88 K, Metastable crystal, Small (less than 1 g) adiabatic calorimetry | 116.5
109.53 K, Crystal, Vacuum adiabatic calorimetry | 112.92
110.28 K, Glass, Small (less than 1 g) adiabatic calorimetry | 119.33
110.52 K, Crystal, Vacuum adiabatic calorimetry | 113.6
110.89 K, Crystal, Vacuum adiabatic calorimetry | 113.71
111.29 K, Metastable crystal, Small (less than 1 g) adiabatic calorimetry | 117.82
112.25 K, Crystal, Vacuum adiabatic calorimetry | 114.5
112.57 K, Crystal, Vacuum adiabatic calorimetry | 114.76
113 K, Glass, Small (less than 1 g) adiabatic calorimetry | 121
113.61 K, Crystal, Vacuum adiabatic calorimetry | 115.32
113.71 K, Metastable crystal, Small (less than 1 g) adiabatic calorimetry | 119.15
114.61 K, Crystal, Vacuum adiabatic calorimetry | 115.9
114.97 K, Crystal, Vacuum adiabatic calorimetry | 116.19
115.74 K, Glass, Small (less than 1 g) adiabatic calorimetry | 122.66
116.15 K, Metastable crystal, Small (less than 1 g) adiabatic calorimetry | 120.5
116.34 K, Crystal, Vacuum adiabatic calorimetry | 116.93
116.65 K, Crystal, Vacuum adiabatic calorimetry | 117.03
117.71 K, Crystal, Vacuum adiabatic calorimetry | 117.69
118.48 K, Glass, Small (less than 1 g) adiabatic calorimetry | 124.31
118.59 K, Metastable crystal, Small (less than 1 g) adiabatic calorimetry | 121.83
118.69 K, Crystal, Vacuum adiabatic calorimetry | 118.24
119.07 K, Crystal, Vacuum adiabatic calorimetry | 118.47
120.44 K, Crystal, Vacuum adiabatic calorimetry | 119.22
120.73 K, Crystal, Vacuum adiabatic calorimetry | 119.36
121.04 K, Metastable crystal, Small (less than 1 g) adiabatic calorimetry | 123.15
121.24 K, Glass, Small (less than 1 g) adiabatic calorimetry | 125.94
121.82 K, Crystal, Vacuum adiabatic calorimetry | 120.01
122.78 K, Crystal, Vacuum adiabatic calorimetry | 120.51
123.19 K, Crystal, Vacuum adiabatic calorimetry | 120.74
123.49 K, Metastable crystal, Small (less than 1 g) adiabatic calorimetry | 124.47
124.01 K, Glass, Small (less than 1 g) adiabatic calorimetry | 127.58
124.56 K, Crystal, Vacuum adiabatic calorimetry | 121.49
124.82 K, Crystal, Vacuum adiabatic calorimetry | 121.64
125.93 K, Crystal, Vacuum adiabatic calorimetry | 122.24
125.95 K, Metastable crystal, Small (less than 1 g) adiabatic calorimetry | 125.81
126.78 K, Glass, Small (less than 1 g) adiabatic calorimetry | 129.18
126.87 K, Crystal, Vacuum adiabatic calorimetry | 122.8
127.3 K, Crystal, Vacuum adiabatic calorimetry | 122.93
128.42 K, Metastable crystal, Small (less than 1 g) adiabatic calorimetry | 127.1
128.67 K, Crystal, Vacuum adiabatic calorimetry | 123.68
128.92 K, Crystal, Vacuum adiabatic calorimetry | 123.91
129.56 K, Glass, Small (less than 1 g) adiabatic calorimetry | 130.84
130.04 K, Crystal, Vacuum adiabatic calorimetry | 124.38
130.89 K, Metastable crystal, Small (less than 1 g) adiabatic calorimetry | 128.38
130.97 K, Crystal, Vacuum adiabatic calorimetry | 125.11
131.41 K, Crystal, Vacuum adiabatic calorimetry | 125.15
132.34 K, Glass, Small (less than 1 g) adiabatic calorimetry | 132.48
132.79 K, Crystal, Vacuum adiabatic calorimetry | 125.91
133.03 K, Crystal, Vacuum adiabatic calorimetry | 126.19
133.37 K, Metastable crystal, Small (less than 1 g) adiabatic calorimetry | 129.68
134.16 K, Crystal, Vacuum adiabatic calorimetry | 126.6
135.08 K, Crystal, Vacuum adiabatic calorimetry | 127.08
135.13 K, Glass, Small (less than 1 g) adiabatic calorimetry | 134.09
135.53 K, Crystal, Vacuum adiabatic calorimetry | 127.32
135.85 K, Metastable crystal, Small (less than 1 g) adiabatic calorimetry | 130.98
136.16 K, Crystal, Vacuum adiabatic calorimetry | 127.66
136.91 K, Crystal, Vacuum adiabatic calorimetry | 128.04
137.14 K, Crystal, Vacuum adiabatic calorimetry | 128.2
137.92 K, Glass, Small (less than 1 g) adiabatic calorimetry | 135.74
138.28 K, Crystal, Vacuum adiabatic calorimetry | 128.82
138.34 K, Metastable crystal, Small (less than 1 g) adiabatic calorimetry | 132.27
138.66 K, Crystal, Vacuum adiabatic calorimetry | 129
139.66 K, Crystal, Vacuum adiabatic calorimetry | 129.53
140.72 K, Crystal, Vacuum adiabatic calorimetry | 130.08
140.72 K, Glass, Small (less than 1 g) adiabatic calorimetry | 137.41
140.83 K, Metastable crystal, Small (less than 1 g) adiabatic calorimetry | 133.54
141.03 K, Crystal, Vacuum adiabatic calorimetry | 130.25
142.4 K, Crystal, Vacuum adiabatic calorimetry | 130.91
142.78 K, Crystal, Vacuum adiabatic calorimetry | 131.16
143.33 K, Metastable crystal, Small (less than 1 g) adiabatic calorimetry | 134.81
143.52 K, Glass, Small (less than 1 g) adiabatic calorimetry | 139.08
143.79 K, Crystal, Vacuum adiabatic calorimetry | 131.72
144.84 K, Crystal, Vacuum adiabatic calorimetry | 132.23
145.17 K, Crystal, Vacuum adiabatic calorimetry | 132.41
145.82 K, Metastable crystal, Small (less than 1 g) adiabatic calorimetry | 136.13
